Reference: patent publication US6384043B1, “Methods of alleviating pain sensations of the denuded eye with opioid analgesics” (priority 1993, dated 2002)
Counter-ions that a name gives are not always drawn. Like-named read-outs stand apart in the source and are kept apart here.

Legend:
[1] = test system: pupil of morphine-dependent subject; conditions: applied topically to one eye of a morphine-dependent subject; cited from earlier work
[2] = test system: corneal sensitivity of patients with corneal abrasion or after a refractive procedure; conditions: 2 drops topical, morphine 0.5 mg/ml, mean ± SEM
Description: The following describes analgesic tests which were performed on patients following topical application of the prepared and previously described topical ophthalmic analgesic formulation. […] Five patients were selected to participate in this study. In all cases, three measurements were made in the following fashion: First, a baseline response (corneal sensitivity) was established by determining the response of the patient eye to a standard pain pressure using a Cochet Bonnet Aesthesiometer instrument and without applying any drug. Measurements were made by beginning with the nylon monofilament (0.12 mm diameter) fully extended. The tip was applied perpendicularly to the corneal surface and gently pressed until the fiber's first visible bending. […] The length was then recorded in units of mm. Second, a saline solution (2 drops) were instilled in the eye and at 10 and 20 minutes later the response of the patient's cornea to pain pressure was determined as described above. These repeated measurements served as a placebo effect for comparison purposes.
Again, an Aesthesiometer, based upon the principle of pressure transmitted axially by a nylon monofilament of known diameter but of variable length for a given bending stress, was applied to the corneal surface. […] The distance, in millimeters (mm) of the nylon monofilament is recorded and then converted to pressure in gram/square millimeter.

[3] = test system: corneal epithelial cell regeneration in pigmented rabbits; assay: Toxicity test: corneal re-epithelialization (wound healing) after mechanical removal of epithelial cells; conditions: for Animals with complete healing of the cornea / total animals per group: 2 drops at 4 hourly intervals for 6 days
Description: Healthy pigmented rabbits weighing about 1.5-2.2 kg were anesthetized and then corneal epithelial cells were scraped and removed using a blade under direct view of a microscope. The basal lamina was left intact while thorough de-epithelialization was performed and confirmed by staining the surface of the cornea with 1% fluorescein. […] Eyes in each group were instilled with two drops of the corresponding solution at 4 hourly intervals for 6 consecutive days. Wound healing (corneal re-epithelialization) was assessed on days 2, 3, 4, 5, 6, 7, and 8 following corneal abrasion using fluorescein staining with Fluor-I-Strip, and epithelial regeneration and migration were monitored by clinical examinations as well as wound surface area measurements.

[4] = test system: pain scores following knee surgery; conditions: applied locally inside the joints following knee surgery; cited from earlier work

**Q.** For `C=CCN1CC[C@]23c4c5ccc(O)c4O[C@H]2C(=O)CC[C@@]3(O)[C@H]1C5` [naloxone], which “Effect on pupil of the same eye” value [1] is on record?
**A.** Its value is “pupillary dilation”.

**Q.** Which “Corneal sensitivity expressed as pressure” value ([2]; 10 min after treatment) does the source give for `CN1CC[C@]23c4c5ccc(O)c4O[C@H]2[C@@H](O)C=C[C@H]3[C@H]1C5.O=S(=O)(O)O` [Morphine, morphine sulphate] here?
**A.** Its value is 7.69 ± 2.16 grm/sq. mm.

**Q.** What about the “Corneal sensitivity expressed as pressure” value ([2]; 20 min after treatment) of the same molecule?
**A.** Its value is 9.84 ± 1.00 grm/sq. mm.

**Q.** And the “Animals with complete healing of the cornea / total animals per group” value ([3]; day 1)?
**A.** Its value is 0/6.

**Q.** What about the “Animals with complete healing of the cornea / total animals per group” value ([3]; day 2) of the same molecule?
**A.** Its value is 0/6.

**Q.** What about the “Animals with complete healing of the cornea / total animals per group” value ([3]; day 3) of the same molecule?
**A.** Its value is 0/6.

**Q.** And the “Animals with complete healing of the cornea / total animals per group” value ([3]; day 4)?
**A.** The value was 1.

**Q.** And the “Animals with complete healing of the cornea / total animals per group” value ([3]; day 4, sulphate)?
**A.** The value was 1/6.

**Q.** What about the “Animals with complete healing of the cornea / total animals per group” value ([3]; day 5, sulphate) of the same molecule?
**A.** Its value is 3/6.

**Q.** And the “Animals with complete healing of the cornea / total animals per group” value ([3]; day 6)?
**A.** The value was 4/6.

**Q.** What about the “Animals with complete healing of the cornea / total animals per group” value ([3]; day 7, sulphate) of the same molecule?
**A.** Its value is 5/6.

**Q.** What about the “Animals with complete healing of the cornea / total animals per group” value ([3]; day 8) of the same molecule?
**A.** The value was 5/6.

**Q.** And the “Effect on pain scores” value [4]?
**A.** Its value is “significantly reduced pain scores”.

**Q.** What about the “Time to maximal effect” value [4] of the same molecule?
**A.** Its value is 3 to 6 h.

**Q.** What does the source list for `CCCOc1ccc(C(=O)OCCN(CC)CC)cc1N` [Alcaine, proparacaine HCl]?
**A.** Complete regeneration / wound healing by ([3]; pigmented, rabbit, in vivo): ≤ 8 days; Day on which eyes began to show epithelial regeneration ([3]; rabbit, in vivo): third day; Effect of repeated topical application on corneal epithelial cell regeneration and migration ([3]; rabbit, in vivo): significantly prevented regeneration
